For one data set, the system named is WT pNL4-3. The experiment in a line: CA-SP1 accumulation assay, WT NL4-3. The format is cell-based, HIV-1. Particulars: 10 nM compound, HeLa or 293T cells. The method in brief:
(§1)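 HeLa or 293T cells transfected with proviral clone, maturation inhibitors present through transfection and labeling; at 24 h, [^35S]Met/Cys labeling 2-3 h. Virions pelleted by ultracentrifugation, lysed, CA and CA-SP1 resolved by SDS-PAGE and quantified by phosphorimaging.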

The test system of another data set is pNL4-3 SP1-V7A. The experiment in a line: CA-SP1 accumulation assay, SP1-V7A derivative. The format is cell-based, HIV-1. The settings on record: 10 nM compound, HeLa or 293T cells. An outline of the steps: as §1
Data set [1] concerns panel of HIV-1 isolates in human PBMCs. As to the kind of experiment: PBMC antiviral assay against a panel of HIV-1 isolates (RT activity). The settings on record: Human immunodeficiency virus 1, PBMC. The format is cell-based. How it is done: Antiviral assays. To produce HIV-1 stocks, 293T cells were transfected with WT pNL4-3 or the SP1-V7A derivative and culture supernatants were collected 24 h post transfection. RT-normalized virus supernatants were used to infect MT-4 cells at room temperature for 30 min. Cells were then cultured in the presence of serial dilutions of compounds. At 4 d post-infection, the culture supernatants were subjected to RT assay to monitor viral replication. The 50% inhibitory concentrations (IC50s) were defined as compound concentrations that reduced RT levels to 50% those measured in the absence of inhibitor (DMSO only controls) using GraphPad Prism 6 software. The IC50s in primary peripheral blood mononuclear cells (PBMCs) were calculated with a multi-clade panel of HIV-1 isolates by Southern Research Institute (Frederick, Md.). The PBMCs were stimulated with phytohemagglutinin (PHA) and IL-2 prior to use in the antiviral assays.
Virus Isolates. Compound evaluation against a panel of HIV-1 isolates were performed by the Southern Research Institute (SRI). The viruses were chosen to include one isolate from each of the seven HIV-1 Group M envelope subtypes A, B, C, D, E, F, and G, as well as isolates from HIV-1 Groups O and N. In addition, various drug resistant HIV-1 isolates were included for evaluation. The HIV-1 isolates selected include CCR5-tropic and CXCR4-tropic isolates. Unless otherwise noted, all virus isolates were obtained from the NIH AIDS Research and Reference Reagent Program. Virus isolate 1022-48 was obtained from Dr. William A. Schief of Merck Research Laboratories. MDR769 and MDR807 were obtained from Dr. Thomas C. Merigan of Stanford University. A low passage stock of each virus was prepared using fresh human PBMCs and stored in liquid nitrogen. Pre-titered aliquots of each virus were removed from the freezer and thawed rapidly to rt in a biological safety cabinet immediately before use.
(§2) Human PBMC Preparation. Fresh human PBMCs were isolated from screened donors, seronegative for HIV and HBV (Biological Specialty Corporation, Colmar, Pa.). Cells were pelleted/washed 2-3 times by low speed centrifugation and resuspension in Dulbecco's phosphate buffered saline (PBS) to remove contaminating platelets. The leukophoresed blood was then diluted 1:1 with PBS and layered over 14 mL of Ficoll-Hypaque density gradient (Lymphocyte Separation Medium, Cell Grow #85-072-CL, density 1.078+/−0.002 g/mL) in a 50 mL centrifuge tube and then centrifuged for 30 min at 600×g. Banded PBMCs were gently aspirated from the resulting interface and subsequently washed twice with PBS by low speed centrifugation. After the final wash, cells were enumerated by trypan blue exclusion and re-suspended at 1×10^6 cells/mL in RPMI 1640 supplemented with 15% Fetal Bovine Serum (FBS), 2 mM L-glutamine, 100 U/mL penicillin, […] streptomycin, and 4 μg/mL Phytohemagglutinin (PHA; Sigma, St. Louis, Mo.; cat #L1668). The cells were allowed to incubate for 48-72 h at 37° C. After incubation, PBMCs were centrifuged and resuspended in RPMI 1640 with 15% FBS, L-glutamine, penicillin, streptomycin, non-essential amino acids (MEM/NEAA; Hyclone; cat #SH30238.01), and 20 U/mL recombinant human IL-2 (R&D Systems Inc., Minneapolis, Minn.; cat #202IL). PBMCs were maintained in this medium at a concentration of 1-2×10^6 cells/mL, with twice-weekly medium changes until they were used in the assay protocol. Monocytes-derived-macrophages were depleted from the culture as the result of adherence to the tissue culture flask.
PBMC Assay. For the standard PBMC assay, PHA stimulated cells from at least two normal donors were pooled (mixed together), diluted in fresh medium to a final concentration of 1×10^6 cells/mL, and plated in the interior wells of a 96 well round bottom microplate at 50 μL/well (5×10^4 cells/well) in a standard formate developed by the Infectious Disease Research Department of the SRI. […]

The next data set is described as follows: in vitro. In kind it is cell-based. Particulars: human. How it is done:
as §2
(§3) PBMC Assay. For the standard PBMC assay, PHA stimulated cells from at least two normal donors were pooled (mixed together), diluted in fresh medium to a final concentration of 1×10^6 cells/mL, and plated in the interior wells of a 96 well round bottom microplate at 50 μL/well (5×10^4 cells/well) in a standard formate developed by the Infectious Disease Research Department of the SRI. Pooling (mixing) of mononuclear cells from more than one donor was used to minimize the variability observed between individual donors, which results from quantitative and qualitative differences in HIV infection and overall response to the PHA and IL-2 of primary lymphocyte populations. Each plate contains virus control wells (cells plus virus) and experimental wells (drug plus cells plus virus). Test drug dilutions were prepared at a 2× concentration in microtiter tubes and 100 μL of each concentration was placed in appropriate wells using the standard format. 50 μL of a predetermined dilution of virus stock was placed in each test well (final MOI≈0.1). Separate plates were prepared identically without virus for drug cytotoxicity studies using an MTS assay system (described below; cytotoxicity plates also include compound control wells containing drug plus media without cells to control for colored compounds that affect the MTS assay). The PBMC cultures were maintained for seven days following infection at 37° C., 5% CO2. After this period, cell-free supernatant samples were collected for analysis of reverse transcriptase activity, and compound cytotoxicity was measured by addition of MTS to the separate cytotoxicity plates for determination of cell viability. Wells were also examined microscopically and any abnormalities were noted.
(§4) MTS Staining for PBMC Viability to Measure Cytotoxicity. At assay termination, the uninfected assay plates were stained with the soluble tetrazolium-based dye MTS (CellTiter 96 Reagent, Promega) to determine cell viability and quantify compound toxicity. MTS is metabolized by the mitochondria enzymes of metabolically active cells to yield a soluble formazan product, allowing the rapid quantitative analysis of cell viability and compound cytotoxicity. […] At termination of the assay, […] of MTS reagent was added per well and the microtiter plates were then incubated at 37° C., 5% CO2 to assess cell viability. […]

For a further data set, the system named is human PBMCs. The experiment in a line: in vitro. The settings on record: 7 days. In kind it is cell-based. How it is done: as §2, §3, §4

Data on four molecules can be found in patent publication US11236122B2, “Triterpene amine derivatives” (DFH THERAPEUTICS, priority 2018, dated 2022).

As for `C=C(C)[C@@H]1CC[C@]2(CCNCCN3CCN(Cc4cccc(F)c4)CC3)CC[C@]3(C)[C@H](CC[C@@H]4[C@@]5(C)CC[C@H](OC(=O)CC(C)(C)C(=O)O)C(C)(C)[C@@H]5CC[C@]43C)[C@@H]12` [Compound 51m, (3β)-17-[2-[[2-[4-(3-Fluorophenylmethyl)piperazin-1-yl]ethyl]amino]ethyl]-28-norlup-20(29)-en-3-ol, 3-(1-Hydrogen 2,2-Dimethylbutanedioate)], the “% CA-SP1 Accumulation 10 nM NL4-3” value in the data set with WT pNL4-3 came to 53.7%. Also, the “% CA-SP1 Accumulation 10 nM SP1 V7A” value in the data set on pNL4-3 SP1-V7A was 40.3 (3) %. Moreover, the IC50 (in general, the concentration needed to halve the response being measured) was 27.9 nM in data set [1] (isolate 92RW009, PBMC); 7.9 nM in data set [1] (isolate 92UG001, PBMC); 8.4 nM in data set [1] (isolate 93BR020, PBMC); 10.8 nM in data set [1] (isolate 93BR029, PBMC); 21.5 nM in data set [1] (isolate 93IN101, PBMC); 17.8 nM in data set [1] (isolate 99UGA07412MI, PBMC). The IC50 in data set [1] (isolate BCF02, PBMC) was 16.7 nM; in data set [1] (isolate CMU02, PBMC) it was 18.8 nM; in data set [1] (isolate JV1083, PBMC), over 1000 nM. Besides, the 50% cytotoxic concentration (CC50) (in general, the concentration giving 50% cytotoxicity) at 7 days in the data set “in vitro” was over 1000 nM. The molecule also returned a CC50 in the data set with human PBMCs of over 1000 nM.
Turning to `C=C(C)[C@@H]1CC[C@]2(CCNCCN3CCN(Cc4ccc5ccccc5c4)CC3)CC[C@]3(C)[C@H](CC[C@@H]4[C@@]5(C)CC[C@H](OC(=O)CC(C)(C)C(=O)O)C(C)(C)[C@@H]5CC[C@]43C)[C@@H]12` [Compound 51r, (3β)-17-[2-[[2-[4-(2-Naphthalenylmethyl)piperazin-1-yl]ethyl]amino]ethyl]-28-norlup-20(29)-en-3-ol, 3-(1-Hydrogen 2,2-Dimethylbutanedioate)], in the data set on WT pNL4-3, the “% CA-SP1 Accumulation 10 nM NL4-3” value was 44.3%. For the same molecule, the “% CA-SP1 Accumulation 10 nM SP1 V7A” value with pNL4-3 SP1-V7A is reported as 34.1 (3) %. In addition, the IC50 was over 1000 nM in data set [1] (isolate 92RW009, PBMC); 25.5 nM in data set [1] (isolate 92UG001, PBMC); 26 nM in data set [1] (isolate 93BR020, PBMC); 22.3 nM in data set [1] (isolate 93BR029, PBMC); 207 nM in data set [1] (isolate 93IN101, PBMC); 370 nM in data set [1] (isolate 99UGA07412MI, PBMC). For the same molecule, the half-maximal inhibitory concentration (IC50) was 62.3 nM in data set [1] (isolate BCF02, PBMC); over 1000 nM in data set [1] (isolate CMU02, PBMC); over 1000 nM in data set [1] (isolate JV1083, PBMC). In “in vitro”, the CC50 at 7 days is over 1000 nM. The same molecule displayed a CC50 with human PBMCs of over 1000 nM.
On to `C=C(C)[C@@H]1CC[C@]2(CCNCCN3CCN(Cc4cccc(Cl)c4)CC3)CC[C@]3(C)[C@H](CC[C@@H]4[C@@]5(C)CC[C@H](OC(=O)CC(C)(C)C(=O)O)C(C)(C)[C@@H]5CC[C@]43C)[C@@H]12` [Compound 51o, (3β)-17-[2-[[2-[4-(3-Chlorophenylmethyl)piperazin-1-yl]ethyl]amino]ethyl]-28-norlup-20(29)-en-3-ol, 3-(1-Hydrogen 2,2-Dimethylbutanedioate)], for which, in the data set on WT pNL4-3, the “% CA-SP1 Accumulation 10 nM NL4-3” value is given as 55.7%. For the same molecule, the “% CA-SP1 Accumulation 10 nM SP1 V7A” value in the data set on pNL4-3 SP1-V7A is listed as 39.4 (3) %. Besides, the IC50 in data set [1] (isolate 92RW009, PBMC) stood at 60.9 nM; in data set [1] (isolate 92UG001, PBMC), 8.1 nM; in data set [1] (isolate 93BR020, PBMC) it was 13.2 nM; in data set [1] (isolate 93BR029, PBMC) it was 14.8 nM; in data set [1] (isolate 93IN101, PBMC) it was 24.8 nM; in data set [1] (isolate 99UGA07412MI, PBMC), 33.2 nM. Besides, the IC50 came out at 38.1 nM in data set [1] (isolate BCF02, PBMC); 25 nM in data set [1] (isolate CMU02, PBMC); 220 nM in data set [1] (isolate JV1083, PBMC). In “in vitro”, the cytotoxic concentration (CC50) at 7 days is over 1000 nM. The molecule further yielded a CC50 with human PBMCs of over 1000 nM.
Take `C=C(C)[C@@H]1CC[C@]2(CCNCCN3CCN(Cc4ccc(Cl)cc4)CC3)CC[C@]3(C)[C@H](CC[C@@H]4[C@@]5(C)CC[C@H](OC(=O)CC(C)(C)C(=O)O)C(C)(C)[C@@H]5CC[C@]43C)[C@@H]12` [Compound 51n, (3β)-17-[2-[[2-[4-(4-Chlorophenylmethyl)piperazin-1-yl]ethyl]amino]ethyl]-28-norlup-20(29)-en-3-ol, 3-(1-Hydrogen 2,2-Dimethylbutanedioate)]: the “% CA-SP1 Accumulation 10 nM NL4-3” value in the data set on WT pNL4-3 is 46.9%. Also, the “% CA-SP1 Accumulation 10 nM SP1 V7A” value with pNL4-3 SP1-V7A is listed as 38.2 (3) %. Besides, the IC50 in data set [1] (isolate 92RW009, PBMC) worked out at 25.9 nM; in data set [1] (isolate 92UG001, PBMC), 5.3 nM; in data set [1] (isolate 93BR020, PBMC) it was 12.8 nM; in data set [1] (isolate 93BR029, PBMC) it was 18.4 nM; in data set [1] (isolate 93IN101, PBMC), 23.3 nM; in data set [1] (isolate 99UGA07412MI, PBMC), 31.4 nM. Besides, the 50% inhibitory concentration (IC50) in data set [1] (isolate BCF02, PBMC) is 22 nM; in data set [1] (isolate CMU02, PBMC) it was 17.3 nM; in data set [1] (isolate JV1083, PBMC), 311 nM. This molecule also had a CC50 at 7 days in “in vitro” of over 1000 nM. In addition, in the data set with human PBMCs, the CC50 is over 1000 nM.
